Laboratory results taken from ChEMBL document CHEMBL1143450, “Potential metabolites of a condensed 2,3-benzodiazepine derivative” (Bioorg Med Chem Lett, 2005).
Each block holds one molecule with its values, some of them ahead of it.

Tests used:
[1] = species: Gallus gallus; experiment: Evaluated for inhibition of AMPA (5 uM) evoked spreading depression in isolated retina prepared from young chicken; assay type: functional
[2] = tested on: Mus musculus; experiment: Effective i.p. dose tested for muscle relaxant activity using inclined screen test in mouse (value range= 29.4-45.2 mg/kg); settings: ip
[3] = tested on: Mus musculus; experiment: Effective p.o. dose tested for anticonvulsant activity using maximal electroshock seizure model in mouse (value range= 17.9-32.1 mg/kg); settings: po
[4] = tested on: Mus musculus; experiment: Effective i.p. dose tested for muscle relaxant activity using inclined screen test in mouse (value range=100-200 mg/kg); settings: ip
[5] = tested on: Mus musculus; experiment: Effective p.o. dose tested for anticonvulsant activity using maximal electroshock seizure model in mouse (value range=25-50 mg/kg); settings: po
[6] = species: Gallus gallus; experiment: Evaluated for inhibition of AMPA (5 uM) evoked spreading depression in isolated retina prepared from young chicken at 20 uM; assay type: functional
[7] = tested on: Mus musculus; experiment: Effective i.p. dose tested for muscle relaxant activity using inclined screen test in mouse (highest test concentration); settings: ip
[8] = tested on: Mus musculus; experiment: Effective p.o. dose tested for anticonvulsant activity using maximal electroshock seizure model in mouse (highest test concentration); settings: po
[9] = tested on: Mus musculus; experiment: as above; settings: po; remark: listed apart in the source
[10] = tested on: Mus musculus; experiment: Effective p.o. dose tested for anticonvulsant activity using maximal electroshock seizure model in mouse (SMA); settings: po
[11] = tested on: Mus musculus; experiment: Effective p.o. dose tested for anticonvulsant activity using maximal electroshock seizure model in mouse; settings: po
[12] = tested on: Mus musculus; experiment: Effective p.o. dose tested for anticonvulsant activity using maximal electroshock seizure model in mouse (high test concentration); settings: po
[13] = tested on: Mus musculus; experiment: Effective i.p. dose tested for muscle relaxant activity using inclined screen test in mouse (value range= 11.2-16.0 mg/kg); settings: ip

IC50 [1]: 7.3 µM
Compound: Cc1cn2c(n1)Cc1ccc(Cl)cc1C(c1ccc(N)cc1)=N2
ED50 [2]: 36.5 mg/kg | ED50 [3]: 24 mg/kg

IC50 [1]: 5 µM
Compound: Nc1ccc(C2=Nn3cc(CO)nc3Cc3ccc(Cl)cc32)cc1
ED50 [4]: 200 mg/kg | ED50 [5]: 50 mg/kg

IC50 [1]: > 20 µM
Compound: CC(=O)Nc1ccc(C2=Nn3cc(C)nc3Cc3ccc(Cl)cc32)cc1
ED50 [11]: 56 mg/kg | ED50 [7]: > 200 mg/kg

Second part, the molecule before the results:

Compound: CC(=O)Nc1ccc(C2=Nn3cc(C(=O)O)nc3Cc3ccc(Cl)cc32)cc1
Inhibition [6]: 33% | ED50 [7]: > 200 mg/kg | ED50 [8]: > 100 mg/kg

Compound: Nc1ccc(C2=Nn3cc(C(=O)O)nc3Cc3ccc(Cl)cc32)cc1
Inhibition [6]: 55% | ED50 [7]: > 200 mg/kg | ED50 [9]: > 100 mg/kg

Compound: CC(=O)Nc1ccc(C2=Nn3cc(CO)nc3Cc3ccc(Cl)cc32)cc1
ED50 [10]: > 100 mg/kg

Compound: CCOC(=O)c1cn2c(n1)Cc1ccc(Cl)cc1C(c1ccc(N)cc1)=N2
IC50 [1]: 20 µM | ED50 [7]: > 200 mg/kg | ED50 [12]: > 100 mg/kg

Compound: CC(=O)N1N=C(c2ccc(N)cc2)c2cc3c(cc2C[C@H]1C)OCO3 [TALAMPANEL]
ED50 [13]: 13.4 mg/kg
